Data reported in patent US4230712A, “7-Methyl-8β-lower alkyl or 7-methyl-8-lower alkyl B/C cis or trans morphinan-6-one compounds and therapeutic method of treating pain employing them” (Miles Laboratories, Inc., priority 1978, dated 1980).
Where a name gives a salt, the structure may show the parent alone. Read-outs that look alike come from different tables or passages of the source.

Tests used:
rats = experiment: narcotic antagonist activity, modified rat tail flick test against morphine; format: in vivo, male albino Wistar rats; set-up: AD50: unit not given here; conditions: for AD50: rat tail flick, dose inhibiting the morphine (ED80 dose s.c.) effect by 50%, IA @ dose = inactive at that dose
Method: (B) Narcotic antagonist activity in rats (modified rat tail flick test).
TEST B. EVALUATION OF NARCOTIC ANTAGONIST ACTIVITY
The narcotic antagonist effects of test compounds were determined by a modification of the rat tail flick procedure of Harris and Pierson (J. Pharmacol. Exp. Ther. 143:141 [1964]).
Male albino Wistar rats (100-120 g) were used for this study. A rat's tail is so placed so as to cover a photocell. Heat is applied by a lamp in a reflector with a timer being connected to the lamp and photocell so that the timer goes on when the light is turned on and is turned off when the photocell is uncovered. A rheostat, incorporated into a heating lamp is used to adjust the intensity of the light falling on the tail of the rat such that the rat's control reaction time is from two to four seconds. Animals with a control reaction time outside this range are rejected. The rheostat adjustment is made only if a significant proportion (more than 2 out of every 10 rats) of the reaction times are outside the range of two to four seconds. Groups of five rats were used each time, and two control times were determined at 60 and 30 minutes prior to subcutaneous injection of the drug.
Thirty minutes after the last control run the test drug was given intraperitoneally. This was followed ten minutes later by an ED80 dose of morphine subcutaneously. The animals were retested at 20 minutes after the morphine injection. Control animals were given vehicle and morphine only. The data were calculated as follows: [formula]
The data were plotted on log-probit paper and AD50 values, i.e., the dose required to inhibit the morphine effect by 50% within 95% confidence limits, were determined by the method of Litchfield and Wilcoxon.

mice = experiment: acetic acid mouse writhing test (analgesic effect, s.c.); format: in vivo, male CD-1 mice; conditions: for ED50: mouse acetic acid writhing, s.c., dose reducing the number of writhes by 50%, IA @ dose = inactive at that dose
Method: (A) Analgesic effects upon mice (acetic acid writhing test).
TEST A. ACETIC ACID MOUSE WRITHING TEST
The analgesic effects of test compounds were determined in mice by use of the acetic acid writhing test described by B. J. R. Whittle, Brit. J. Pharmacol., 22:246 (1964). In this test at least three groups of five male CD-1 mice (18-22 g) each were given subcutaneous doses of the test drug dissolved in either distilled water or distilled water acidified with HCl depending on the solubility of the compound. In all cases, 0.4 milliliter of a 0.5% V/V acetic acid in distilled water solution was administered intraperitoneally 15 minutes post drug. The number of writhes in a 20 min. interval beginning 5 minutes after the acetic acid injection were determined and compared with the number of writhes in control groups which had received only acetic acid.
Percent inhibition of writhing was calculated as: [formula]
The ED50 dose, i.e., the dose required to reduce the number of writhes by 50%, was determined graphically from a plot of % inhibition as a probit versus log dose. Confidence limits of 95% were calculated on the basis of those results falling in the range 16-84% inhibition. See Litchfield, J. T. and Wilcoxon, F., J. Pharmacol. Exp. Ther., 96, 99-113, (1949).

[1] = charcoal meal test with attempted naloxone reversal; format: in vivo
[2] = more potent than TR-5222 by a factor

With `C[C@H]1C[C@H]2[C@H]3Cc4ccc(O)cc4[C@@]2(CCN3CC2CC2)CC1=O.Cl` [TR-5177, 17-Cyclopropylmethyl-3-hydroxy-7α-methylmorphinan-6-one Hydrochloride] the AD50 (rats) was 5.2, the ED50 (mice; sc, read-out: ED50) was 0.87 mg/kg and the “action in charcoal meal test upon attempted naloxone reversal” value ([1]; attempted reversal with naloxone, Hydrochloride) was “novel action in charcoal meal test upon attempted naloxone reversal”. For the same compound, the “duration of action suggested by charcoal meal test” value ([1]; inferred from novel action upon attempted naloxone reversal) was “may have a longer duration of action than would be expected”.

With `C[C@H]1[C@@H]2[C@H]3Cc4ccc(O)cc4[C@@]2(CCN3CC2CC2)CC(=O)[C@@H]1C` [TR-5343, 17-Cyclopropylmethyl-7β,8α-dimethyl-3-hydroxy-isomorphinan-6-one Hydrobromide] the “analgesic (agonist)/narcotic antagonist activity profile” value (rats; in words, conclusion from Tests A and B) was “mixed analgesic and narcotic antagonist activity”, the “narcotic antagonist potency relative to TR-5222” value (rats; [2]) was “approximately two” and the AD50 (rats) was 0.43. For the same compound, the “narcotic antagonist potency relative to TR-5196” value (rats; vs geometric isomer TR-5196) was “somewhat less potent”, the “analgesic potency relative to TR-5222” value (mice; [2]) was “approximately two” and the ED50 (mice; sc, read-out: ED50) was 1.89 mg/kg. For the same compound, the “analgesic potency relative to TR-5196” value (mice; times as potent as geometric isomer TR-5196) was “approximately 4 times”.

In the case of `CC[C@H]1[C@@H]2[C@H]3Cc4ccc(O)cc4[C@@]2(CCN3CC2CCC2)CC(=O)[C@@H]1C` [TR-5370, 17-Cyclobutylmethyl-8α-ethyl-3-hydroxy-7β-methyl-isomorphinan-6-one Hydrochloride], the narcotic antagonist activity (rats; in words) is reported as “essentially inactive”, the AD50 (rats) is reported as > 10 and the analgesic activity (mice; in words) is reported as “essentially inactive”. The ED50 (mice) was “IA @ 10”.
